Data from US9699976B2, “Direct and indirect organogenesis of Jatropha” (TEMASEK LIFE SCIENCES LABORATORY LTD., priority 2012, dated 2017).

Columns and labels:
[1] = system: petiole explant of Jatropha curcas; conditions: medium containing 2.27 μM TDZ; Kumar et al. (2011b); cited from earlier work
[2] = system: thin sections of petiole, pedicle, peduncle and rachis explants of Jatropha curcas; test: Shoot bud induction directly from thin sections of explants (direct organogenesis); assay type: cell-based; conditions: only BA and Kn alone in the medium
Procedure: The petiole from 2nd to 4th leaf and pedicle, peduncle and rachis from inflorescence before the onset of flowering were selected as explant for the present study. Explants were initially washed in running tap water for 5 min and followed by wash in chlorohexidine surgical wash (two drops in 100 ml of distilled water) for 10 min to remove the adhering particles on the surface. The explants were surface sterilized in 0.1% HgCl2 for 10 min followed by 3 washes using sterilized distilled water.
The chemicals used in the present study were purchased from Duchefa Biochemie, Haarlem, The Netherlands and Sigma Aldrich, Inc., St Louis, USA. The culture media composed of MS basal salts, B5 vitamins, 3% sucrose and 0.8% agar as solidifying agent. The pH of the media is adjusted to 5.6-5.8 before autoclaving. All the cultures were incubated at 25±2° C. with 16 hr light/8 hr dark photoperiod conditions at a light intensity of 150 μEm^−2s^−1. The culture conditions are same throughout the stages of organogenesis.
The thin sections of all the explants (petiole, pedicle, peduncle and rachis) and the calli initiated from different explants (petiole, pedicle, […]; […]).
Thin sections of explants placed on shoot induction medium expanded and bended towards up and started to produce adventitious buds from the explants within 2 weeks. […]

[3] = system: elongated shoots of Jatropha curcas; test: Maturation of elongated shoots on maturation medium; assay type: cell-based; conditions: BA present in maturation medium; abnormal shoot production and in vitro flowering
Procedure: The chemicals used in the present study were purchased from Duchefa Biochemie, Haarlem, The Netherlands and Sigma Aldrich, Inc., St Louis, USA. The culture media composed of MS basal salts, B5 vitamins, 3% sucrose and 0.8% agar as solidifying agent. The pH of the media is adjusted to 5.6-5.8 before autoclaving. All the cultures were incubated at 25±2° C. with 16 hr light/8 hr dark photoperiod conditions at a light intensity of 150 μEm^−2s^−1. The culture conditions are same throughout the stages of organogenesis. […] Elongated shoots were separated from the clump and cultured on the Maturation medium containing Kn (1.17 μM), AdSO4 (135.75 μM), GA3 (0.73 μM) IBA (0.49 μM) and casein hydrolysate (100 mg/l). Well elongated shoots were separated carefully from the clumps and transferred to maturation medium to induce physiological maturity. Most of the shoots culture in the maturation medium reached maturity within 3 weeks whereas some shoots still need additional 3 weeks and were cultured in the same medium to bring physiological maturity.

SMILES	average shoots per 0.5 cm length petiole explant [1] [shoots per explant]	response with petiole explant [1] [%]	effect on shoot bud induction from the tested explants [2]	effect of presence in maturation medium on shoot maturation [3]
O=C(Nc1ccccc1)Nc1cnns1 [TDZ, thidiazuron]	4.98	57.61		
c1coc(CNc2ncnc3[nH]cnc23)c1 [Kn, kinetin]			no effect	
c1ccc(CNc2ncnc3nc[nH]c23)cc1 [BA, 6-benzylaminopurine]			no effect	hindered maturation
